Experimental data taken from US5362412A, “Biodegradable bleach stabilizers for detergents” (priority 1991, dated 1994).

How the values were obtained:
[1] = Perborate stabilization in the presence of Mn ions (peroxide remaining after hot storage, iodine/starch titration); details: pH 10.1
Description: (§1) The hydrogen peroxide responsible for the bleaching action in sodium perborate based laundry detergents is decomposed catalytically by transition metal ions such as Mn^II and Cu^II. This degradation can be prevented by complexing the metal ions.
(§2) The peroxide stabilizing effect of stabilizers in accordance with the invention was tested by measuring the peroxide present before and after storage in a hot aqueous solution which contains copper or manganese ions.
(§3) A solution of 0.2 g (2×10^-3 mols) sodium perborate monohydrate; 10.0 ml of hardness standard (3:1 CaCl2 :MgCl2, 1×10^-6 mols total); 3.0 ml of metal standard (5.4×10^-8 mol Mn^II or 4.7×10^-8 mols Cu^II); and 2.0 ml stabilizer solution (4.2×10^-7 mols stabilizer) was diluted to 100 ml with distilled water. The pH was adjusted to 10.1 and the solution was stirred at 70° C. for 20 minutes. Ten ml aliquots of the solution were tested after 10 minutes by first neutralizing the solution with sulfuric acid and then titrating with iodine and starch.
(§4) The percentage of peroxide remaining after storage was determined using a starch/iodine titration procedure.

[2] = Sodium perborate stabilization in wash liquors (bleaching of grape juice stained swatches); details: 5.2×10^-5 mol/l stabilizer, sodium perborate-monohydrate 0.8 g/l, 50° C., 15 minutes, pH 10.3; for ΔE (brightness of the swatches): Fe^III, Cu^II, Mn^II; for % Stain Removal: in duplicate
Description: The efficiency of the bleaching action of a laundry detergent containing the stabilizers of the invention was measured by washing white poly-cotton fabric swatches previously stained with grape juice. The test was carried out using the following detergent formulation: […]
Sodium Dodecyl Benzene Sulfonate
Grape juice stained, poly-cotton fabric swatches purchased from Scientific Services, Oakland, N.J., were washed in a Tergitometer at 50° C. for 15 minutes in a wash solution containing sodium perborate-monohydrate 0.8 g/l; 4.0 g/l of the zeolite-based detergent as described above; 100 ppm Hardness (3:1 Ca:Mg); 2 ppm Fe^III; 1 ppm Cu^II; and 1 ppm Mn^II (from AA standards); and 5.2×10^-5 mol/l stabilizer. The pH of the wash solution was 10.3. The swatches were then rinsed for 5 minutes in 25° C. water and air dried.
The efficiency of the bleaching action was determined by measuring the brightness (ΔE) of the swatches and the percentage of soil removed from the swatches.
ΔE was calculated in accordance with ASTM E 308-66(81) standards, using the following formula: [formula] wherein L=Lightness 0 black, 100 white a=Redness if +, Greenness if -, Gray is 0 b=Yellow if +, Blue if -, Gray is 0
Δ measurements are before and after washing
Percent stain removal was calculated in duplicate in accordance with ASTM D3050-75 standards, using the following formula: [formula] where D=reflectance by detergent head with green filter (brightness).

[3] = Perborate stabilization in the presence of Cu ions (peroxide remaining after hot storage, iodine/starch titration); details: pH 10.1
Description: as §1, §2, §3, §4

[4] = conventional tests; cited from earlier work
[5] = 5.4×10^-8 mol Mn^II, 4.2×10^-7 mols stabilizer in 100 ml, 70° C.
[6] = 4.7×10^-8 mols Cu^II, 4.2×10^-7 mols stabilizer in 100 ml, 70° C.

Row | SMILES | Stability in Presence of Mn^2 Ions, % Remaining [1, 5] | ΔE (brightness of the swatches) [2] | % Stain Removal [2] | Stability in Presence of Cu^+2 Ions, % Remaining [3, 6] | Stability in Presence of Mn^2 Ions, % Remaining [1] | Stability in Presence of Cu^+2 Ions, % Remaining [3] | biodegradability [4]
1 | O=C(O)CC(C(=O)O)N(CC(=O)O)CC(=O)O (stereo not drawn) [AspDA, Aspartic acidN,N-diacetic acid] | 25.6% | 93.9 | 83.7% | 28.6% |  |  | 
2 | O=C(O)CNC(CC(=O)O)C(=O)O (stereo not drawn) [AspMA, Aspartic acidN-monoacetic acid] |  | 87.6 | 84.4% |  | 21.5% | 0.0% | 
3 | O=C(O)CCN(CC(=O)O)CC(=O)O [BADA] | 45.0% | 98.0 | 83.3% | 50.4% |  |  | 
4 | O=C(O)CSC(CC(=O)O)C(=O)O (stereo not drawn) [CMMS, Carboxymethylmercaptosuccinic acid] | 54.5% | 102.3 | 84.5% | 31.3% |  |  | 
5 | O=C(O)CN(CCN(CC(=O)O)CC(=O)O)CC(=O)O [EDTA, Ethylenediaminetetraacetic acid, reference compound] | 87.5% | 86.2 | 79.7% | 82.8% |  |  | insufficiently biodegradable
6 | O=C(O)CN(CC(=O)O)CC(O)CN(CC(=O)O)CC(=O)O [HPDTA, hydroxypropylenediaminetetraacetic acid] |  |  |  |  |  |  | insufficiently biodegradable
7 | O=C(O)CC(NC(CC(=O)O)C(=O)O)C(=O)O (stereo not drawn) [ISA, Iminodisuccinic acid] | 13.6% | 92.7 | 81.4% | 79.0% |  |  | 
8 | CC(CN(CC(=O)O)CC(=O)O)N(CC(=O)O)CC(=O)O (stereo not drawn) [PDTA, propylenediaminetetraacetic acid] |  |  |  |  |  |  | insufficiently biodegradable
